Measured values: PubChem BioAssay (NCI)
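A five-concentration, 48-hour dose response in 96-well plates underlies each endpoint, interpolated linearly between surrounding concentrations. Abbreviation: GI50, concentration required for 50% inhibition of growth. TGI: concentration producing complete growth inhibition.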 Where a SMILES comes first, the peptide text is derived from it. [ ]: non-standard residue; d: D form. 2Nal = N[CH](Cc1ccc2ccccc2c1)C(=O)O

How the values were obtained:
Test in all cases: NCI tumour cell line growth inhibition, 48 h
A549 NSCLC = system: A549 NSCLC
SK-OV-3 ovarian = system: SK-OV-3 ovarian
OVCAR-3 ovarian = system: OVCAR-3 ovarian
NCI-H460 lung = system: NCI-H460 lung
HS 578T breast = system: HS 578T breast
MCF7 breast = system: MCF7 breast
786-0 renal = system: 786-0 renal
SW-620 colon = system: SW-620 colon
RXF 393 renal = system: RXF 393 renal
NCI-H23 lung = system: NCI-H23 lung

Structure (SMILES)	GI50 (A549 NSCLC) [µM]	TGI (A549 NSCLC) [µM]	GI50 (SK-OV-3 ovarian) [µM]	TGI (SK-OV-3 ovarian) [µM]	GI50 (OVCAR-3 ovarian) [µM]	TGI (OVCAR-3 ovarian) [µM]	GI50 (NCI-H460 lung) [µM]	TGI (NCI-H460 lung) [µM]	GI50 (HS 578T breast) [µM]	TGI (HS 578T breast) [µM]	GI50 (MCF7 breast) [µM]	TGI (MCF7 breast) [µM]	GI50 (786-0 renal) [µM]	TGI (786-0 renal) [µM]	GI50 (SW-620 colon) [µM]	TGI (SW-620 colon) [µM]	GI50 (RXF 393 renal) [µM]	TGI (RXF 393 renal) [µM]	GI50 (NCI-H23 lung) [µM]	TGI (NCI-H23 lung) [µM]
COc1cc2ncn(-c3cc(OCc4ccccc4C(F)(F)F)c(C(C)=O)s3)c2cc1OC	> 25	> 25	> 25	> 25	> 25	> 25	> 25	> 25	19.3	> 25	> 25	> 25	> 25	> 25	> 25	> 25	> 21.5	> 25	> 25	> 25
Cc1cc(NNC(=O)c2ccccc2O)nc(Nc2nc3ccccc3o2)n1	1.13	10.3	0.633	2.22	2.06	15.6	0.422	6.77	3.26	37.5	1.88	20.7	1.8	7.98	3.03	17.8	1.69	7.3	3.99	37.8
Cc1nnc(-c2ccc(C)c(-c3ccc(C(=O)NCc4ccc(Cl)cc4)cc3)c2)o1	11.5	> 25	9.53	> 25	11.6	> 25	11.9	> 25	10.7	> 25	7.37	> 19	18.7	> 25	> 25	> 25	6.28	> 25	11.3	> 25
CC1CC(C)C2=NOS3=C2C1=NO3 (stereo not drawn)	–	> 100	–	> 100	–	> 100	–	> 100	–	> 100	–	> 100	–	> 100	–	> 100	–	> 100	–	> 100
O=C(Nc1ccc2c(c1)OCO2)C(=O)c1c[nH]c2cc(F)ccc12	2.81	> 100	4.24	15.2	4.67	19	3.26	> 100	2.63	62.7	6.91	> 100	4.39	23	2.07	> 100	3.65	11	13.9	55.4
Nc1nc(N)c(N=Nc2ccc(C(=O)O)c(O)c2)c(N)n1	–	> 100	–	> 100	–	53.8	–	> 100	–	> 100	–	> 100	–	> 100	–	> 100	–	> 100	–	> 100
O=C1C(=O)N(c2cccc(C(F)(F)F)c2)C(=O)C(=O)C1c1nc2ccccc2s1	–	> 100	–	> 100	–	> 100	–	> 100	–	> 100	–	> 100	–	> 100	–	> 100	–	> 100	–	> 100
O=S(=O)(Nc1ccc2ccccc2c1)c1ccc(-c2cnc(C3CC3)o2)cc1	1.74	> 100	1.54	32.3	0.435	5.37	0.56	10.9	0.811	13.2	0.478	25	3.1	18.7	0.468	18.3	0.573	3.92	3.38	22.5
COc1ccc(/C=C2\CC(C)CC3C2=NN(c2ccccc2)C3c2ccc(OC)c(OC)c2)cc1OC (stereo not drawn)	5.72	> 100	9.29	> 100	3.71	> 100	3.09	12.4	> 100	> 100	3.23	42.6	5.24	37.3	3.96	> 100	> 100	> 100	4.49	27.2
CC(C)C(NC(=O)C(CCCCN)NC(=O)C(Cc1c[nH]c2ccccc12)NC(=O)C(Cc1ccc(O)cc1)NC(=O)C(CS)NC(=O)C(N)Cc1ccc2ccccc2c1)C(=O)NC(CS)C(=O)NC(C(N)=O)C(C)O (stereo not drawn) (H-[2Nal]CYWKVCT-NH2; configuration not given here)	> 100	> 100	> 100	> 100	> 100	> 100	> 100	> 100	–	> 12.5	–	> 12.5	> 100	> 100	> 100	> 100	> 100	> 100	> 100	> 100
CC(CCCC1SCC2NC(=O)NC21)C(=O)O (stereo not drawn)	–	> 100	–	> 100	–	> 100	–	> 100	–	> 100	–	> 100	–	> 100	–	> 100	–	> 100	–	> 100
CC(C)CCC(=O)[C@@H](C)[C@H]1[C@@H](OC2OCC(O)C(O)C2NS(C)(=O)=O)C[C@H]2[C@@H]3CC=C4C[C@@H](O)CC[C@]4(C)[C@H]3CC[C@]12C (stereo partly drawn)	3.55	11.5	1.27	5.04	2.72	10.3	1.42	4.86	0.423	3.41	1.26	5.73	0.181	0.93	1.54	6.02	0.178	0.783	3.3	12.7
O=C(Cn1c(C(=O)c2ccccc2)nc2ccccc21)c1ccc(F)cc1	22.9	> 100	32.7	> 100	3.39	> 25.5	12	> 76	11.5	> 100	3.27	> 72	20.8	> 100	3.28	> 100	7.29	> 56.9	19.4	> 100
COC(=O)C1=C(C(=O)OC)C2OC1c1cc3ccccc3cc12	–	37	–	33	–	7.29	–	46.3	–	43.6	–	59.9	–	3.29	–	3.96	–	3.29	–	11.8
